Measurements reported in patent publication US20210300939A1, “Single Molecule Compounds Providing Multi-Target Inhibition of BTK and Other Proteins and Methods of Use Thereof” (SignalRx Pharmaceuticals, Inc., priority 2018, published 2021).

How the values were obtained:
[1] = test system: pBTK in JeKo cells; experiment: Washout Western blot for pBTK in IgM-stimulated JeKo cells; assay type: cell-based, human; details: 5 μM or 1 μM for 3 hours, washed with PBS three times, 4 hours recovery
[2] = test system: JeKo-1 cells; experiment: Cell viability (Celltiter-Glo), JeKo-1; assay type: cell-based; details: Homo sapiens, 48 hours
Protocol: (§1) The results of this experiment are shown in FIGS. 1A-1C, and in Table 7 below. Human mantle cell lymphoma cell lines were grown in 96 well plates with 5000 cells per well in RPMI 1640 media supplemented with 10% fetal bovine serum. Cells were treated for 48 hours with a concentration range of each compound from 50 nM to 50 uM. Cell viability a measure of viable cell numbers was determined using a Celltiter-Glo^R reagent for each concentration in order to construct an IC50 curve for each compound in each cell line.

[3] = test system: pAKT(S473) in JeKo and Mino cells; experiment: Western blot, phosphorylation of AKT at Ser 473 in anti-IgM stimulated cells; assay type: cell-based, human; details: for Suppression of pAKT: JeKo cells stimulated with F(ab′) and anti-human IgM, various concentrations, FIG. 3B; for Suppression of pAKT (Ser 473): anti-IgM stimulated JeKo and Mino cells, FIGS. 2A-2D
Protocol: Phosphorylation of BTK at Tyr223 and AKT at Ser 473 were determined by Western blot analysis. The results are shown in FIGS. 2A-2B (JeKo cells) and FIGS. 2C-2D (Mino cells). Blots were reprobed for total BTK, AKT, and β-actin.

[4] = biological target: T1, PI3K α (Homo sapiens, UniProt P42336); experiment: PI3K alpha inhibition (Thermo Fisher Scientific); assay type: biochemical; details: 10-point curve; read-out: Target IC50 PI3K α
T1 construct: purchased Thermo Fisher Scientific-Biosciences Life Sciences Solutions, Madison, Wis; (contract assay)
T1 sequence (P42336 whole entry): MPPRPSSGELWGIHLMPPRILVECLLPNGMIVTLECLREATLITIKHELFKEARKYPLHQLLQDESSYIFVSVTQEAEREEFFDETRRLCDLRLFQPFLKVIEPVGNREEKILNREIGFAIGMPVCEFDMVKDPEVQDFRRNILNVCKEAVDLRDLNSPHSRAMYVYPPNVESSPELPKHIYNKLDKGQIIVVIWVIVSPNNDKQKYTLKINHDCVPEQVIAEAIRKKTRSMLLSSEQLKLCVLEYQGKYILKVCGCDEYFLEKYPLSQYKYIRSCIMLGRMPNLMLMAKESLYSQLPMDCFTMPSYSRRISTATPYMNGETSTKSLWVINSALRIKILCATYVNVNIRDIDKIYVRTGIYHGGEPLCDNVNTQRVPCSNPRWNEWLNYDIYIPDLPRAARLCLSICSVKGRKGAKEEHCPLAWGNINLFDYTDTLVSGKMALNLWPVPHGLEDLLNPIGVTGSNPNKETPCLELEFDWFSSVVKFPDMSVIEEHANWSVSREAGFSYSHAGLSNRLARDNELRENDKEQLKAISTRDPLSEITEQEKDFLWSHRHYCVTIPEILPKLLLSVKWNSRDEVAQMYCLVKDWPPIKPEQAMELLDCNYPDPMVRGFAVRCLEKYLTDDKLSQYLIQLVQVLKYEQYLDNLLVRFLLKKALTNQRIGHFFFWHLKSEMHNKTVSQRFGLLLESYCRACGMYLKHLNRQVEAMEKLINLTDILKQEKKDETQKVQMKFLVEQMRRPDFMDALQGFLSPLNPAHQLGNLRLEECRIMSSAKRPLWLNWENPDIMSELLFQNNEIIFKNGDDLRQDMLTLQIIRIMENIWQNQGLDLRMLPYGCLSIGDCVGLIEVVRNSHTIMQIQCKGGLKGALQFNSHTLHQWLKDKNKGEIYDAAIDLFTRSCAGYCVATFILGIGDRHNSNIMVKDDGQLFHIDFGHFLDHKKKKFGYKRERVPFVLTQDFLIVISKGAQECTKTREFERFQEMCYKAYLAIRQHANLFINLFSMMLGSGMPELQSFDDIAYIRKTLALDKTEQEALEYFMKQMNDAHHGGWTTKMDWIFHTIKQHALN
T1 sequence (P27986 whole entry partner): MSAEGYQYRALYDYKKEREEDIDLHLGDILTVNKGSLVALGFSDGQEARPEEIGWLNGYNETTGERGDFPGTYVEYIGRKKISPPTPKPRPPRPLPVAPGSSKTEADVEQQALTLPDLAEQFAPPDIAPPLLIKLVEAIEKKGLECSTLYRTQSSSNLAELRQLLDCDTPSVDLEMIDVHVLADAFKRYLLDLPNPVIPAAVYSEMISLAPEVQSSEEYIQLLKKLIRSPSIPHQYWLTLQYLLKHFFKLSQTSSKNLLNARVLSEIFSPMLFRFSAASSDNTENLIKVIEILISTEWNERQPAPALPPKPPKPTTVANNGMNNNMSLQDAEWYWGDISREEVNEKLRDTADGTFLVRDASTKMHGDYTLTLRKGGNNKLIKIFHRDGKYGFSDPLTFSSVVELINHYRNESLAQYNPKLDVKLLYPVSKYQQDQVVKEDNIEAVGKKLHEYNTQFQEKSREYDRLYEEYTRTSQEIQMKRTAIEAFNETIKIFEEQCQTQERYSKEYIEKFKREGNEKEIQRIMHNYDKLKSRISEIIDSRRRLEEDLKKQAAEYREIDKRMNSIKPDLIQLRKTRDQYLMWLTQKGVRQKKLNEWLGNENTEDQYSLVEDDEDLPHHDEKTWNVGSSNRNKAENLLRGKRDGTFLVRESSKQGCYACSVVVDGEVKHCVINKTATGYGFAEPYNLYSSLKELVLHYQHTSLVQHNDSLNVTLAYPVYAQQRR
Protocol: (§2) The BTK, PI3K, and/or bromodomain inhibitory activity of a compound of the invention can be determined by methods known to the skilled artisan, or by procuring relevant analysis by a commercial vendor offering such services. […] In vivo, PI3K inhibition can be determined from target tissue biopsies by standard tissue processing in which cells are disrupted and Western Blot analysis is performed to determine the presence or absence of pAKT (substrate of PI3K) relative to a control sample. PI3K inhibition assays and BTK inhibition assays are known in the art and can be procured commercially through vendors such as Reaction Biology (Malvern, Pa.). The activity of a compound of the invention as an inhibitor of a bromodomain-containing protein, such as a BET protein, including BRD2, BRD3, BRD4, and/or BRDT, or an isoform or mutant thereof, may be determined in vitro, in vivo, or in a cell line. In vitro assays include assays that determine inhibition of bromodomain-containing proteins. Alternatively, inhibitor binding may be determined by running a competition experiment where a provided compound is incubated with a bromodomain-containing protein, such as a BET protein bound to known ligands, labeled or unlabeled. In vitro bromodomain inhibition assays can be performed using Alpha Screen Technology (Perkin Elmer Life and Analytical Sciences, Shelton, Conn.). In vivo bromodomain inhibition can be determined indirectly by evaluating the amount of a protein whose gene transcription is influenced or controlled by the bromodomain protein, for example, MYCN protein transcription is controlled by BRD4 (J. E. Delmore et al., Cell 2011, 146, 904-917; A. Puissant, Cancer Discov. 2013, 3, 308-323).
(§3) Compounds of the invention were analyzed for their ability to inhibit target proteins in vitro. PI3K alpha, gamma, and delta inhibition activity was determined by Thermo Fisher Scientific-Biosciences Life Sciences Solutions, Madison, Wis. The bromodomain protein inhibition (binding domain 1 and 2 of BRD4) was determined at Reaction Biology Corp., Malvern, Pa. BTK inhibition was performed by Reaction Biology Corp., Malvern, Pa.
(§4) Additional information regarding the testing procedures is available at each company's website on the internet. The IC50 data was calculated from a 10-point curve by the vendor and is compiled in ranges in the Table 6 below.

[5] = test system: pAKT in JeKo cells; experiment: Washout Western blot for pAKT in IgM-stimulated JeKo cells; assay type: cell-based, human; details: 5 μM or 1 μM for 3 hours, washed with PBS three times, 4 hours recovery
[6] = test system: Granta519 cells; experiment: Cell viability (Celltiter-Glo), Granta519; assay type: cell-based; details: Homo sapiens, Granta-519, 48 hours
Protocol: as §1

[7] = test system: Human mantle cell lymphoma cell lines; experiment: Cell viability, mantle cell lymphoma cell lines (overall conclusion); assay type: cell-based; details: in vitro, 48 hours
Protocol: as §1

[8] = test system: Mino cells; experiment: Cell viability (Celltiter-Glo), Mino; assay type: cell-based; details: Homo sapiens, 48 hours
Protocol: as §1

[9] = test system: pBTK(Y223) in JeKo and Mino cells; experiment: Western blot, phosphorylation of BTK at Tyr223 in anti-IgM stimulated cells; assay type: cell-based, human; details: for Suppression of pBTK(Y223): JeKo cells stimulated with F(ab′) and anti-human IgM, various concentrations, FIG. 3B; for Suppression of pBTK (Tyr223): anti-IgM stimulated JeKo and Mino cells, FIGS. 2A-2D
[10] = biological target: T2, BTK (C481S) (Homo sapiens, UniProt Q06187, C481S); experiment: BTK cysteine mutant C481S inhibition (Reaction Biology Corp.); assay type: biochemical; details: for Ratio C481S/WT: ratio of the BTK IC50 values, C481S over wild-type
T2 construct: purchased Reaction Biology Corp., Malvern, Pa; (contract assay)
T2 sequence (Q06187 whole entry C481S): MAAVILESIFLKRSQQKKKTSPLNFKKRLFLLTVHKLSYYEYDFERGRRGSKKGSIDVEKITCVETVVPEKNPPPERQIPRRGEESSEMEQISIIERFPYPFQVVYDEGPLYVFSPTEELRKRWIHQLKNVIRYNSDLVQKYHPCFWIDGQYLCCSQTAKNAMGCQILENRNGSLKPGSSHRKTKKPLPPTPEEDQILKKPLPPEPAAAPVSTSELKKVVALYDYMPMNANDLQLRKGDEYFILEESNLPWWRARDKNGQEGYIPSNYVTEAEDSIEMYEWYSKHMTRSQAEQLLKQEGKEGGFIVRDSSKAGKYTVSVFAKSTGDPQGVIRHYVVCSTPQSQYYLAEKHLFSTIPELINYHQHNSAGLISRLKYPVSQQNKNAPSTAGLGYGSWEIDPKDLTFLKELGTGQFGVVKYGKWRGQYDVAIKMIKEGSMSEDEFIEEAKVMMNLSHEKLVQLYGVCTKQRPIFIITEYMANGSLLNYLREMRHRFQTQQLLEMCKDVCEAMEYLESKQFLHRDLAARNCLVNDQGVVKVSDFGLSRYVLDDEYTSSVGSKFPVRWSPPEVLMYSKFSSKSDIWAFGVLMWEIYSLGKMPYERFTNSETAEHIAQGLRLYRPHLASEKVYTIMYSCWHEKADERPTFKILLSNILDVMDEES
Protocol: as §3, §4

[11] = biological target: T3, BTK (WT) (Homo sapiens, UniProt Q06187); experiment: native BTK inhibition (Reaction Biology Corp.); assay type: biochemical; details: 10-point curve; read-out: Target IC50 BTK (WT)
T3 construct: purchased Reaction Biology Corp., Malvern, Pa; (contract assay)
T3 sequence (Q06187 whole entry): as the sequence (Q06187 whole entry C481S) above, with S481C counted along it
Protocol: as §3, §4

[12] = biological target: T4, PI3K δ (Homo sapiens, UniProt O00329); experiment: PI3K delta inhibition (Thermo Fisher Scientific); assay type: biochemical; details: 10-point curve; read-out: Target IC50 PI3K δ
T4 construct: purchased Thermo Fisher Scientific-Biosciences Life Sciences Solutions, Madison, Wis; (contract assay)
T4 sequence (O00329 whole entry): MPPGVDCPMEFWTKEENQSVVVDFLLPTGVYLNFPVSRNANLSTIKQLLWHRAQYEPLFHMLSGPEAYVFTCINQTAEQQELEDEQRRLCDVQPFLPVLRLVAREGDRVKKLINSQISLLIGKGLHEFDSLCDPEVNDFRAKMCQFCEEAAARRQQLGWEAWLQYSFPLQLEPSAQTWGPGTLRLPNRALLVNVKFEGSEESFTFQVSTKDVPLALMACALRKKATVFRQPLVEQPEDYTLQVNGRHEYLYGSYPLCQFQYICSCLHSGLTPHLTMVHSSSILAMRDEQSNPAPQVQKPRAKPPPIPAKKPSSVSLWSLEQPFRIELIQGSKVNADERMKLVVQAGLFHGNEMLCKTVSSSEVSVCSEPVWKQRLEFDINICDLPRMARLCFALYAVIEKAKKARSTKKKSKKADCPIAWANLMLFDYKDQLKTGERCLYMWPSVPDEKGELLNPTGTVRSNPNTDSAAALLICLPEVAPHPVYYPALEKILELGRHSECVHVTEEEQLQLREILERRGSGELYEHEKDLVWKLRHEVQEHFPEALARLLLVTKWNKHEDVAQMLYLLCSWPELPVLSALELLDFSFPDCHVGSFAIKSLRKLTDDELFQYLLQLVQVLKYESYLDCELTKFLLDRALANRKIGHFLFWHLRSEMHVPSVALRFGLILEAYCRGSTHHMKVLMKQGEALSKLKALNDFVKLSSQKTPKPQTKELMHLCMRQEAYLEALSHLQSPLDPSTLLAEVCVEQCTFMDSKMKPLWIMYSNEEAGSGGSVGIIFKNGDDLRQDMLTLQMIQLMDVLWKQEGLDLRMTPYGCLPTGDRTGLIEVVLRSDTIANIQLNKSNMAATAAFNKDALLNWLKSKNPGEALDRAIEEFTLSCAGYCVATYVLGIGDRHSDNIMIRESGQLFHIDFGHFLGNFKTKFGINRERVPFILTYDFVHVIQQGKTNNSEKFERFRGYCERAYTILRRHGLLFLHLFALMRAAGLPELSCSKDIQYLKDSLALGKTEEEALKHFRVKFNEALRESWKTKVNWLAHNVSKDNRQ
T4 sequence (P27986 whole entry partner): as the sequence (P27986 whole entry partner) above
Protocol: as §2, §3, §4

[13] = biological target: T5, BRD4-1 (binding domain 1 of BRD4) (Homo sapiens, UniProt O60885); experiment: BRD4 binding domain 1 inhibition (Reaction Biology Corp.); details: 10-point curve; read-out: Target IC50 BRD4-1
T5 construct: purchased Reaction Biology Corp., Malvern, Pa; (contract assay)
Protocol: as §2, §3, §4

[14] = test system: JeKo-1 cells; experiment: Percentage cells in apoptosis, JeKo-1; assay type: cell-based, human
Text: (§5) Additionally apoptosis data was obtained in both JeKo and Mino cells for compound 7.

[15] = test system: Mino cells; experiment: Percentage cells in apoptosis, Mino; assay type: cell-based, human; details: 24-hour
Text: as §5

[16] = biological target: T6, PI3K γ (Homo sapiens, UniProt P48736); experiment: PI3K gamma inhibition (Thermo Fisher Scientific); assay type: biochemical; details: 10-point curve; read-out: Target IC50 PI3K γ
T6 construct: purchased Thermo Fisher Scientific-Biosciences Life Sciences Solutions, Madison, Wis; (contract assay)
T6 sequence (P48736 whole entry): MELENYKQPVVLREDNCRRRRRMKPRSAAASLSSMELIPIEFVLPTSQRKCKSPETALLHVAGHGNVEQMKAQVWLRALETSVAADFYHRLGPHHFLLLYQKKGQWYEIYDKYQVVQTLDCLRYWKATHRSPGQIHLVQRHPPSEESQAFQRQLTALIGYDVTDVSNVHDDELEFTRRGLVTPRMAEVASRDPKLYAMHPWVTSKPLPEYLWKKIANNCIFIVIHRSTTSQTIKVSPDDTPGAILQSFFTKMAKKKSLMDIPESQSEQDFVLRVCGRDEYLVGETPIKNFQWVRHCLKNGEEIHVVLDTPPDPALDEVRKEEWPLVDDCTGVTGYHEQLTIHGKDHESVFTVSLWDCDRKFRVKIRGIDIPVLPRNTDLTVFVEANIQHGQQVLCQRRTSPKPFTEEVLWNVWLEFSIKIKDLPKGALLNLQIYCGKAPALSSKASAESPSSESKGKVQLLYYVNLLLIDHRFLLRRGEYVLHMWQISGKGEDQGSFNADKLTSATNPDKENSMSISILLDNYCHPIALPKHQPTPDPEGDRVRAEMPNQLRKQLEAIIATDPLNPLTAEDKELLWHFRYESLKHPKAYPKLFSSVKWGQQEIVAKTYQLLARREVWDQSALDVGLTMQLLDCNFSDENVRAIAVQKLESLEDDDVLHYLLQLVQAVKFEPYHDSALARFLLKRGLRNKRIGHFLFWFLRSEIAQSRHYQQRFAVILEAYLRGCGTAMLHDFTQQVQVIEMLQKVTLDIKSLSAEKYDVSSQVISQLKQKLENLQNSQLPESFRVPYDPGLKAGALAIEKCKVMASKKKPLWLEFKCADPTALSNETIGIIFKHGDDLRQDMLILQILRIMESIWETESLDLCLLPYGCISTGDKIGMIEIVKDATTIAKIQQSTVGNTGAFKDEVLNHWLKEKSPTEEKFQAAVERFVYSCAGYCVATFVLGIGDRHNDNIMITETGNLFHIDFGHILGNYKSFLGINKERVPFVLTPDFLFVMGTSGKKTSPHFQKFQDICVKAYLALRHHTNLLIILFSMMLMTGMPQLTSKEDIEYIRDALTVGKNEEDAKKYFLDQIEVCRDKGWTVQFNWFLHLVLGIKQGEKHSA
Protocol: as §2, §3, §4

[17] = test system: JeKo cells; experiment: Cell cycle analysis in JeKo cells; assay type: cell-based, human; details: MCL cells, 5 μM, FIG. 4
[18] = biological target: T7, fluorophore-tagged BRD4 fusion protein (Homo sapiens, UniProt O60885); experiment: Chromatin-release assay in JeKo cells; assay type: cell-based; details: 1 μM, confocal microscopy
T7 construct: expressed in transfected cells; host or cells: JeKo cells
Protocol: A chromatin-release assay was performed on JeKo cells treated with 1 μM Compound 7.

[19] = test system: pBTK(Y223) in JeKo-BTK-WT and JeKo-BTK-C481S cells; experiment: Western blot for pBTK(Y223) in JeKo-BTK wild-type and JeKo-BTK-C481S cells; assay type: cell-based, human; details: 1 hour, different concentrations, FIGS. 6A and 6B
[20] = biological target: T8, BRD4-2 (binding domain 2 of BRD4) (Homo sapiens, UniProt O60885); experiment: BRD4 binding domain 2 inhibition (Reaction Biology Corp.); details: 10-point curve; read-out: Target IC50 BRD4-2
T8 construct: purchased Reaction Biology Corp., Malvern, Pa; (contract assay)
Protocol: as §2, §3, §4

[21] = test system: pBTK in JeKo-BTK-C481S cells; experiment: Washout immunoblot for pBTK in JeKo-BTK-C481S cells; assay type: cell-based, human; details: 3 hours, washed with PBS, 4 hours recovery, FIG. 6C
[22] = test system: pAKT(S473) in JeKo-BTK-WT and JeKo-BTK-C481S cells; experiment: Western blot for pAKT in JeKo-BTK wild-type and JeKo-BTK-C481S cells; assay type: cell-based, human; details: 1 hour, different concentrations, FIGS. 6A and 6B
[23] = test system: JeKo and Mino cells; experiment: Apoptosis, both mantle cell lymphoma lines (overall statement); assay type: cell-based, human
Text: as §5

[24] = test system: PI3 kinases; details: cited from earlier work
[25] = test system: breast cancer stem cells; details: women with breast tumors with high levels of HER2 protein; decreased from 11%; cited from earlier work

Row | IC50 [4] [nM] | Ratio C481S/WT [10] | IC50 [11] [nM] | IC50 [12] [nM] | IC50 [13] [nM] | Compound | IC50 [2] [nM] | Suppression of pAKT [3] | Suppression of pAKT (Ser 473) [3] | IC50 [6] [nM] | Potency in reducing mantle cell lymphoma viability as compared to Ibrutinib [7] | IC50 [8] [nM] | Suppression of pBTK(Y223) [9] | Suppression of pBTK (Tyr223) [9] | further results
1 | < 1000 | >81 | < 1000 | < 1000 | < 1000 | C=CC(=O)Nc1cccc(-c2csc3c(=O)cc(N4CCOCC4)oc23)c1 [Compound 1, 1-[m-(5-Morpholino-7-oxo-4-oxa-1-thia-3-indenyl)phenylamino]-2-propen-1-one] | 1000 to 10000 | suppressed | block the catalytic activity | 1000 to 10000 | markedly more potent | < 1000 | suppressed | block the catalytic activity | pBTK inhibition after washing [1]: not diminished by washing; pAKT after washing [5]: restored after washing
2 | < 1000 | 728 | < 1000 | < 1000 | < 1000 | C=CC(=O)N1CCOc2ccc(-c3csc4c(=O)cc(N5CCOCC5)oc34)cc21 [Compound 7, 1-[7-(5-Morpholino-7-oxo-4-oxa-1-thia-3-indenyl)-4-oxa-1-aza-2,3-dihydro-1H-naphth-1-yl]-2-propen-1-one] | < 1000 |  | block the catalytic activity | 1000 to 10000 | markedly more potent | < 1000 |  | block the catalytic activity | Percentage cells in apoptosis ([14]; JeKo-1, 24-hour, Early): + (less than 5%); Percentage cells in apoptosis ([14]; JeKo-1, 24-hour, Late): +++ (between 10% and 30%); Percentage cells in apoptosis ([14]; JeKo-1, 24-hour, Total): +++ (between 10% and 30%); Percentage cells in apoptosis ([14]; JeKo-1, 48-hour, Early): +++ (between 10% and 30%); Percentage cells in apoptosis ([14]; JeKo-1, 48-hour, Late): +++ (between 10% and 30%); Percentage cells in apoptosis ([14]; JeKo-1, 48-hour, Total): ++++ (between 30% and 50%); Percentage cells in apoptosis ([15]; Early): +++ (between 10% and 30%); Percentage cells in apoptosis ([15]; Late): ++ (between 5% and 10%); Percentage cells in apoptosis ([15]; Total): +++ (between 10% and 30%); IC50 [16]: < 1000 nM; Cell cycle effect [17]: Cell Cycle Arrest; Release of BRD4 from chromatin [18]: released a fluorophore-tagged BRD4 fusion protein from chromatin; Inhibition of pBTK [19]: inhibit pBTK; IC50 [20]: < 1000 nM; IC50 ([10]; 10-point curve, read-out: Target IC50 BTK (C481S)): 10000 to 30000 nM; pBTK suppression activity upon washout [21]: irreversible; Inhibition of pAKT [22]: inhibits pAKT and in a dose dependent manner; Apoptosis compared with exposure to Ibrutinib [23]: much more apoptosis
3 |  |  |  |  |  | C=CC(=O)Nc1ccc(-c2csc3c(=O)cc(N4CCOCC4)oc23)cc1 [Compound 13] | < 1000 | suppressed |  | < 1000 | markedly more potent | < 1000 | suppressed |  | 
4 |  |  |  |  |  | O=c1cc(N2CCOCC2)oc2c(-c3ccccc3)cccc12 [LY294002, 2-(4-morpholinyl)-8-phenyl-4H-1-benzopyran-4-one] |  |  |  |  |  |  |  |  | IC50 [24]: 1400 nM
5 |  |  |  |  |  | CS(=O)(=O)CCNCc1ccc(-c2ccc3ncnc(Nc4ccc(OCc5cccc(F)c5)c(Cl)c4)c3c2)o1 [Lapatinib] |  |  |  |  |  |  |  |  | Breast cancer stem cells in biopsies [25]: 5 % of cells
